{"source": "patent US8815912B2", "about": "“Wound and mucosa antiseptic based on bispyridiniumalkanes” (L'Air Liquide Société Anonyme pour l'Etude et …, priority 2009, dated 2014)", "assay": "Stability of solutions rendered isotonic (290 mOsmol/kg)", "format": "physicochemical", "conditions": "0.10% octenidine, dihydrochloride", "description": "To investigate the stability, aqueous solutions containing 0.1% by weight of octenidine were in each case rendered isotonic (290 mOsmol/kg)."}
{"smiles": "CCCCCCCCN=c1ccn(CCCCCCCCCCn2ccc(=NCCCCCCCC)cc2)cc1.Cl.Cl", "note": "[Octenidine, Octenidine dihydrochloride]", "values": [{"measurement": "Stability", "setting": "isotonicity adjusted with 0.85% sodium chloride, listed as octenidine", "result": "not stable"}, {"measurement": "Stability", "setting": "isotonicity adjusted with 2.4% glycerol (99.8% strength)", "result": "Stable between +4 °C and +40 °C"}, {"measurement": "Stability", "setting": "isotonicity adjusted with 2.4% glycerol (99.8% strength), listed as octenidine", "result": "stable"}, {"measurement": "Stability", "setting": "isotonicity adjusted with 99.9% Ringer's solution, listed as octenidine", "result": "not stable"}]}
